One data set deals with HaCat keratinocyte. Kind of data set: in vitro inhibition of cell proliferation / survival assay. Type of data set: cell-based. The following applies: Homo sapiens; for viability at 25 µM: measured at 25 μM after 48 h, single dose, triplicate. The method, then:
(§1) As an initial effort to investigate their in vitro bioactivity, the new synthesized 3-(4-arylmethylamino)butyl-2-thioxo-1,3-thiazolidine-4-one 9a–n and also their precursors 6a–f were evaluated for their in vitro inhibition of cell proliferation. For this study, we used a panel of seven representative tumoral cell lines, namely HuH7 D12 (differential hepato cellular carcinoma), Caco 2 (differentiating colorectal adenocarcinoma), MDA-MBD231 ([…]), HCT 116 (actively proliferating colorectal adenocarcinoma), PC3 (prostate carcinoma), NCI-H727 (lung carcinoma), HaCat keratinocyte and, diploid skin fibroblasts as normal cell lines for control.
(§2) Skin diploid fibroblastic cells were provided by BIOPREDIC International Company (Rennes, France). Caco2 (Ref ECACC: 86010202), Huh-7D12 (Ref ECACC: 01042712), MDA-MB-231 (Ref ECACC: 92020424), HCT-116 (Ref ECACC: 91091005), PC3 (Ref ECACC: 90112714), NCI-H727 (Ref ECACC: 94060303) cell lines were obtained from the ECACC collection and HaCaT (from Cell Lines Service, Eppelheim, Germany). Cells were grown according to ECACC recommendations. The toxicity test of the compounds on these cells was as follows: 2 × 10^3 cells for HCT-116 cells or 4 × 10^3 for the other cells were seeded in 96 multiwell plates in triplicate and left for 24 h for attachment, spreading and growing. Then, cells were exposed for 48 h to increasing concentrations of the compounds, ranging from 0.1 to 25 μM in a final volume of 120 μL of culture medium. Cells were fixed in cooled solution of 90% ethanol/5% acetic acid, nuclei were stained with Hoechst 3342 (Sigma) and counted using automated imaging analysis (Cellomics Arrayscan VTI/HCS Reader, Thermo/Scientific, Waltham, MA, USA). The IC50 were graphically determined.

In data set [1] the test system is HCT 116 cells (actively proliferating colorectal adenocarcinoma). Described as above. Type of data set: cell-based. The following applies: Homo sapiens; for viability at 25 µM: measured at 25 μM after 48 h, single dose, triplicate. The method, then:
as §1, §2

The test system of data set [2] is Huh7 D12 cells (differential hepato cellular carcinoma). Described as above. Type of data set: cell-based. The following applies: for viability at 25 µM: Huh-7D12, measured at 25 μM after 48 h, single dose, triplicate. The method, then:
as §1, §2

In data set [3] the test system is Caco 2 cells (differentiating colorectal adenocarcinoma). Described as above. Type of data set: cell-based. The settings on record: Homo sapiens; for viability at 25 µM: measured at 25 μM after 48 h, single dose, triplicate. The method, then:
as §1, §2

The subject of a further data set is MDA-MB231 cells. The description is as above. Type of data set: cell-based. The settings on record: Homo sapiens; for viability at 25 µM: MDA-MB-231, measured at 25 μM after 48 h, single dose, triplicate. The method, then:
as §1, §2

Data set [4] has as its system PC3 cells (prostate carcinoma). The description is as above. The settings on record: Homo sapiens; for viability at 25 µM: PC-3, measured at 25 μM after 48 h, single dose, triplicate. Type of data set: cell-based. The method, then: as §1, §2
The subject of data set [5] is NCI-H727 cells (lung carcinoma). Described as above. Type of data set: cell-based. The settings on record: Homo sapiens, NCI-H727; for viability at 25 µM: measured at 25 μM after 48 h, single dose, triplicate, read-out: % of Survival. The method, then:
as §1, §2

For another data set, the system named is diploid skin fibroblasts. Description: in vitro inhibition of cell proliferation / survival assay, normal cells control. Type of data set: cell-based. The following applies: Skin fibroblast, Fibroblasts; for viability at 25 µM: measured at 25 μM after 48 h, single dose, triplicate, read-out: % of Survival. The method, then: as §1, §2
Data set [6] has as its system panel of seven representative tumoral cell lines. Description: in vitro inhibition of cell proliferation, whole panel. Type of data set: cell-based. The following applies: all cell lines of the panel, without selectivity; read-out: IC50, moderate antitumor activities in all cell lines of the panel. The method, then:
as §1
as §2, with “The toxicity test of the compounds on these cells was as follows: 2 × 10^3 cells for HCT-116 cells or 4 × 10^3 for the other cells were seeded in 96 multiwell plates in triplicate and left for 24 h for attachment, spreading and growing. Then, cells were exposed for 48 h to increasing concentrations of the compounds, ranging from 0.1 to 25 μM in a final volume of 120 μL of culture medium.” left out

Setting [7] is: 48 h, average of three assays, standard error ± 0.5 μM.

The structures appear in SMILES notation. Where only a bound is given, the exact number is not on record here.

Consider `COc1ccc(CNCCCCN2C(=O)/C(=C/c3ccc4c(c3)OCO4)SC2=S)cc1` [Compound 9a, (5Z)3-[4-(4-Methoxyphenylmethylamino)butyl]-5-(1,3-benzodioxol-5-ylmethylene)-2-thioxo-1,3-thiazolidin-4-one], for which the melting point was 170 to 229 °C (dec.). For the same compound, in the data set with HaCat keratinocyte, the viability at 25 µM was determined as 103%. The viability at 25 µM in [1] worked out at 109%. Also, in [2], the viability at 25 µM was found to be 85%. Further, the viability at 25 µM in [3] stood at 109%. Moreover, the viability at 25 µM in the data set on MDA-MB231 cells worked out at 100%. Also, in [4], the viability at 25 µM was 92%. Besides, the viability at 25 µM in [5] came out at 104%. Also, the viability at 25 µM in the data set with diploid skin fibroblasts worked out at 104%.

`COc1cccc(CNCCCCN2C(=O)/C(=C/c3ccc4c(c3)OCCO4)SC2=S)c1` [Compound 9f, (5Z)3-[4-(3-Methoxyphenylmethylamino)butyl]-5-(2,3-dihydro-1,4-benzodioxin-6-ylmethylene)-2-thioxo-1,3-thiazolidin-4-one]: the melting point lay within 247 to 251 °C. Moreover, the viability at 25 µM in the data set on HaCat keratinocyte worked out at 100%. The viability at 25 µM in data set [1] was found to be 113%. Also, in [2], the viability at 25 µM was 102%. Also, the viability at 25 µM in [3] came out at 110%. Also, in the data set on MDA-MB231 cells, the viability at 25 µM is 98%. Also, the viability at 25 µM in [4] stood at 98%. Moreover, the viability at 25 µM in data set [5] worked out at 96%. Moreover, the viability at 25 µM with diploid skin fibroblasts worked out at 134%.

Turning to `COc1cc(/C=C2\SC(=S)N(CCCCNCc3ccc4c(c3)OCO4)C2=O)ccc1O` [Compound 9k, (5Z)3-[4-(1,3-Benzodioxol-5-ylmethylamino)butyl]-5-(4-hydroxy-3-methoxybenzylidene)-2-thioxo-1,3-thiazolidin-4-one], the melting point fell in the range of 200 to 203 °C. Moreover, the viability at 25 µM in the data set with HaCat keratinocyte was found to be 80%. Further, the viability at 25 µM in data set [1] worked out at 98%. The viability at 25 µM in data set [2] worked out at 72%. Further, in data set [3], the viability at 25 µM is 98%. The viability at 25 µM in the data set on MDA-MB231 cells was determined as 92%. The viability at 25 µM in [4] was determined as 83%. In addition, the viability at 25 µM in data set [5] is 96%. Moreover, in the data set with diploid skin fibroblasts, the viability at 25 µM stood at 84%.

`COc1ccc(CNCCCCN2C(=O)/C(=C/c3ccc(O)c(OC)c3)SC2=S)cc1` [Compound 9d, (5Z)3-[4-(4-Methoxyphenylmethylamino)butyl]-5-(4-hydroxy-3-methoxybenzylidene)-2-thioxo-1,3-thiazolidin-4-one]: the melting point is 191 to 193 °C. In the data set with HaCat keratinocyte (HaCaT, 48 h, average of three assays, standard error ± 0.5 μM), this compound displayed an IC50 of 10 µM. In the data set on HaCat keratinocyte, the viability at 25 µM amounted to 2%. For the same compound, in [1] (setting [7]), the IC50 was found to be 10 µM. The viability at 25 µM in [1] was 1%. Inhibition in data set [2] (Huh-7D12, 48 h, average of three assays, standard error ± 0.5 μM) was half-maximal at 10 µM (IC50). In [2], the viability at 25 µM was found to be 7%. In addition, the half-inhibitory concentration (IC50) in [3] (setting [7]) worked out at 15 µM. In [3], the viability at 25 µM amounted to 23%. In the data set with MDA-MB231 cells (MDA-MB-231, 48 h, average of three assays, standard error ± 0.5 μM), this compound came in with an IC50 of 11 µM. The viability at 25 µM in the data set on MDA-MB231 cells stood at 15%. The same compound returned a concentration for half-maximal inhibition (IC50) in data set [4] (PC-3, 48 h, average of three assays, standard error ± 0.5 μM) of 17 µM. For the same compound, in [4], the viability at 25 µM came out at 41%. In [5] (setting [7]), this compound gave an IC50 of 10 µM. Besides, the viability at 25 µM in data set [5] is 11%. Also, in the data set with diploid skin fibroblasts (setting [7]), the IC50 is more than 25 µM. Also, in the data set with diploid skin fibroblasts, the viability at 25 µM stood at 29%. In addition, the IC50 in [6] is 10 to 17 µM.

The compound `Cl.NCCCCNCc1ccc2c(c1)OCO2` [Compound 6e, N-1-Benzo[1,3]dioxol-5-ylmethyl-butane-1,4-diamine hydrochloride] had a melting point of more than 260 °C. In the data set with HaCat keratinocyte, the viability at 25 µM worked out at 96%. For the same compound, the viability at 25 µM in data set [1] turned out to be 102%. In data set [2], the viability at 25 µM is 91%. The viability at 25 µM in data set [3] stood at 106%. In addition, the viability at 25 µM with MDA-MB231 cells was determined as 102%. Besides, the viability at 25 µM in data set [4] is 96%. In addition, the viability at 25 µM in data set [5] was 98%. The viability at 25 µM in the data set with diploid skin fibroblasts was 93%.

As for `COc1cccc(/C=C2\SC(=S)N(CCCCNCc3cccc(OC)c3)C2=O)c1` [Compound 9g, (5Z)3-[4-(3-Methoxyphenylmethylamino)butyl]-5-(3-methoxybenzylidene)-2-thioxo-1,3-thiazolidin-4-one], the melting point was in the range of 225 to 227 °C. Also, the viability at 25 µM with HaCat keratinocyte amounted to 110%. Also, the viability at 25 µM in data set [1] stood at 118%. In addition, the viability at 25 µM in data set [2] is 111%. Besides, the viability at 25 µM in [3] is 117%. The viability at 25 µM in the data set with MDA-MB231 cells worked out at 104%. The viability at 25 µM in [4] came out at 98%. In addition, the viability at 25 µM in [5] came out at 95%. Also, the viability at 25 µM in the data set with diploid skin fibroblasts amounted to 100%.

As to `COc1ccc(/C=C2\SC(=S)N(CCCCNCc3ccc(OC)cc3)C2=O)cc1` [Compound 9b, (5Z)3-[4-(4-Methoxyphenylmethylamino)butyl]-5-(4-methoxybenzylidene)-2-thioxo-1,3-thiazolidin-4-one], the melting point lay in the range of 253 to 255 °C. Moreover, the viability at 25 µM in the data set with HaCat keratinocyte was 104%. In data set [1], the viability at 25 µM was determined as 102%. The viability at 25 µM in [2] came to 105%. Moreover, the viability at 25 µM in data set [3] amounted to 108%. For the same compound, the viability at 25 µM with MDA-MB231 cells is 97%. Also, in [4], the viability at 25 µM is 99%. For the same compound, the viability at 25 µM in [5] is 90%. Moreover, the viability at 25 µM with diploid skin fibroblasts came to 167%.

What is called melting point is the temperature of the solid-liquid transition. Usually IC50 stands for the concentration needed to halve the response being measured.

The values are drawn from article PMC6332318, “Synthetic Development of New 3-(4-Arylmethylamino)butyl-5-arylidene-rhodanines under Microwave Irradiation and Their Effects on Tumor Cell Lines and against Protein Kinases” (Molecules, 2015).
